Test: Supplementation study: Total Body Stores of vitamin A (TBS) by isotope dilution with [13C10] retinyl acetate
Assay type: in vivo, human subjects
Settings: 7 mg beta-carotene daily, 54 days, humans
Description: The person skilled in art knows how to determine the Total Body Stores (TBS) of vitamin A, e.g. by determining the [^13C10] retinyl acetate dose after a sufficient period (circa 3 days) of isotope dilution with endogenous pools.
The study underlying the present invention analyzed inter alia the Total Body Store of vitamin A (TBS) using an isotope dilution method and [^13C10] retinol concentrations, and determined the effect of the rs7501331 or rs6564851 SNPs on BCO1 enzyme activity. To enable the analysis of SNPs on TBS, stepwise multiple regression was performed using the Akaike Information Criterion (AIC) to evaluate the covariates dietary intake of retinol, provitamin A carotenoids and retinol equivalents, age, BMI and body fat. The most significant covariant used for the selective model to analyze the SNP and TBS interaction was dietary retinol equivalent, with an AIC of 276.5. Thus, the final model tested the effects of the rs7501331 or rs6564851 SNPs on TBS at both baseline and after 54 days of supplementation accounting for dietary retinol equivalent as the only co-variant in the analysis.
The study was a randomized, single blind supplementation design combined with retrospective genotyping to test three beta-carotene formulations (7mg β-carotene/day) for a period of 8 weeks. […] On day 1 and 57 of each supplementation period, a fasting blood sample was taken before the oral administration of 2 mg of [^13C10] β-carotene and 0.4 mg of [^13C10] retinyl acetate as part of a test breakfast meal. Further blood samples were taken at 2, 4, 6, 8, 10 and 12 hours post-dose. For the first formulation (BetaTab 20%S) single fasting blood samples were also taken at day 2, 3, 4, 8, 10, 22, 36 and day 57 of the 8 week supplementation period followed by fasting blood samples at day 58, 59, 60, 64, 66, 78, 92 and 113 during the wash-out period. […] However, overall body retinol homeostasis was determined using supplement 1 (BetaTab 20% S).

Which results are given for CC1=C(/C=C/C(C)=C/C=C/C(C)=C/C=C/C=C(C)/C=C/C=C(C)/C=C/C2=C(C)CCCC2(C)C)C(C)(C)CCC1 [beta-carotene]?
effect of rs7501331 (A379V) SNP / dominant T variant on TBS values after supplementation: can overcome; effect of the rs6564851 SNPs on TBS after supplementation: does not disappear; effect of rs7501331 (A379V) SNP / dominant T variant on TBS values after supplementation (listed as ß-carotene): disappeared

— patent EP3409787A1, “TWO SNPS (SINGLE NUCLEOTIDE POLYMORPHISMS) IN THE SEQUENCE OF THE BETA, BETA-CAROTENE 15,15 DIOXYGENASE GENE AND THEIR USE” (DSM IP Assets B.V., priority 2017, dated 2018)
